Source: patent US20240327421A1 (Marquette University, priority 2017, published 2024)
“Also recorded” adds a separate entry of the source.

What was measured:
[1] = target: T1, human ER Alpha ligand-binding domain (LBD) (Homo sapiens, UniProt P03372); experiment: TR-FRET competitive binding assay, ERα LBD; conditions: displacement of fluorescent tracer from ERα LBD
T1 construct: purchased Thermo Fisher Scientific
T1 sequence (P03372 311-547 limits assumed): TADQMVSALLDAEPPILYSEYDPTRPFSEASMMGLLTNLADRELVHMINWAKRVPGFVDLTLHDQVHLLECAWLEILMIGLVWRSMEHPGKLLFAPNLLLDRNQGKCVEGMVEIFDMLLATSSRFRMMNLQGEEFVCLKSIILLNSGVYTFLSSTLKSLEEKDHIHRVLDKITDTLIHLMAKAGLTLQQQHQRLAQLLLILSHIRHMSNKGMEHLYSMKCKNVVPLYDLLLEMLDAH
Text: TR-FRET Assay. LanthaScreen® TR-FRET ER Alpha and Beta Competitive Binding Assay kits from Thermo Fisher Scientific were used to perform the TR-FRET assays. These included a terbium-labeled anti-GST antibody, a fluorescent small molecule ER Alpha or Beta ligand as a “tracer”, and a human ER Alpha or Beta ligand -binding domain (LBD) that is tagged with glutathione-S-transferase (GST) in a homogenous mix- and -read assay format.
The TR-FRET assay employs a Tb-anti-GST antibody that binds to a GST tag, and a fluorescently labeled estrogen (tracer) binds in the active site pocket. The TR-FRET signal obtained decreases when competitor compounds displace the fluorescently labeled tracer. Assays were performed according to kit instructions. Briefly, 1:5 dilution series of compounds were made with DMSO, then diluted in assay buffer such that the highest concentration tested in the assay was 50 μM for ERβ and 50 μM for ERα and DMSO was 1%. […] TR-FRET signal was read on a SpectraMax M5 (Molecular Devices) set-up according to Thermo Fisher Scientific machine settings (excitation of 332 nm, emissions 518 nm and 488 nm with a 420 nm cutoff, 50 μs integration delay, 400 μs integration time, and 100 flashes per read). The TR-FRET ratio was calculated using the SoftmaxPro software by dividing the emission at 518 nm (fluorescein) by the emission at 488 nm (Terbium). […]

[2] = target: T2, ERα LBD fused to GAL4 DBD (Homo sapiens, UniProt P03372); experiment: GeneBLAzer cell-based transcriptional activation, chimeric ERα; conditions: agonist mode
T2 sequence (P03372 311-547 limits assumed): T1 sequence (P03372 311-547 limits assumed)

[3] = target: T3, Glucocorticoid Receptor (GR) (Homo sapiens, UniProt P04150); experiment: GeneBLAzer nuclear hormone receptor specificity assay, GR; assay type: cell-based; conditions: 0.25 to 25 μM; listed as ISP358-2
T3 sequence (P04150 524-758 limits assumed): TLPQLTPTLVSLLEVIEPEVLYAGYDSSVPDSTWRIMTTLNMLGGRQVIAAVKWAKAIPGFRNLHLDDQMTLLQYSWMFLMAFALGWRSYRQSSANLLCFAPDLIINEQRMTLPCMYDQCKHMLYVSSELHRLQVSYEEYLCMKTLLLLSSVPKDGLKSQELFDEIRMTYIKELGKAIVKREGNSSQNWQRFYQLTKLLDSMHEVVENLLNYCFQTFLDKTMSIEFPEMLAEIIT

[4] = target: T4, Progesterone Receptor (PR) (Homo sapiens, UniProt P06401); experiment: GeneBLAzer nuclear hormone receptor specificity assay, PR; assay type: cell-based; conditions: 0.25 to 25 μM; listed as ISP358-2
T4 sequence (P06401 679-913 limits assumed): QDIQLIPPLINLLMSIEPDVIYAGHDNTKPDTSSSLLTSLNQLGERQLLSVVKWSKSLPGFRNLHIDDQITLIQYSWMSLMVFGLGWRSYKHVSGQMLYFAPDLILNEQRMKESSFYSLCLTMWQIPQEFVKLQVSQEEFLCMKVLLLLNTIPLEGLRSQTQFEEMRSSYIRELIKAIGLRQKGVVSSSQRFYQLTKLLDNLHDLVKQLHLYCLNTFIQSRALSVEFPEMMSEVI
Procedure: Nuclear Hormone Receptor Specificity Assay. Selectivity measurements were performed using the SelectScreen™ cell-based nuclear receptor profiling service from ThermoFisher (FIG. 3A). This is a FRET-based assay that uses GeneBLAzer™ technology. It detects ligand binding to and activation of a nuclear hormone receptor of interest (ligand binding domain; LBD) that is fused to a GAL4 DNA binding domain (DBD), which upon activation induces expression of beta-lactamase. The assay has a Z′≥0.5 in agonist mode. […]

ERα = target: T5, ERα (Homo sapiens, UniProt P03372); experiment: Cell-based luciferase reporter assay, full length ERα, antagonist mode
T5 construct: employs a full length and native ER (comprised of an ER LBD and an ER DBD)
T5 sequence (P03372 1-595): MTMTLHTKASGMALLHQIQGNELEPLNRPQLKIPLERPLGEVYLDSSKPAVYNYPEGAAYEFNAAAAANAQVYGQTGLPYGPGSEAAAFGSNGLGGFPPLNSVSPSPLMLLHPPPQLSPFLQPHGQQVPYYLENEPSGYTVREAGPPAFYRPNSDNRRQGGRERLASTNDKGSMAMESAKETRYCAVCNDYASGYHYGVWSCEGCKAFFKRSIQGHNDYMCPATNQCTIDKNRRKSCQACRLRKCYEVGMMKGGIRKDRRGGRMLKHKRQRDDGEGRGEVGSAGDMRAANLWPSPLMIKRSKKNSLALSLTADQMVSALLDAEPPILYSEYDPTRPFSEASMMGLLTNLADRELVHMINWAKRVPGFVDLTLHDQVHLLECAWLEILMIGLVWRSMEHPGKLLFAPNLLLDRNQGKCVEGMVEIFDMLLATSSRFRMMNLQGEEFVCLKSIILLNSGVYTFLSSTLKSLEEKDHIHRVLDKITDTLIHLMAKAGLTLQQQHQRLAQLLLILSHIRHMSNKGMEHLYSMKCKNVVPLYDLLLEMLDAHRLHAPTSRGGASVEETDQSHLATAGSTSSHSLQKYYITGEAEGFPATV

For `OC[C@H]1CC[C@H](c2ccc(O)cc2)CC1` [Compound 16], the IC50 [1] was 289 ± 92 nM, the IC50 [2] was 930 ± 69 nM and the “agonist activity, GR” value [3] was “not an agonist; also recorded: no significant off-target activity”. For the same molecule, the “agonist activity, PR” value [4] was “not an agonist; also recorded: no significant off-target activity”, the ERα antagonist activity (ERα; concentrations up to 10 μM, listed as ISP358-2) was “No measurable antagonist activity” and the IC50 (ERα; inhibition of estradiol-induced transcription, read-out: ERα antagon. IC50) was over 10000 nM.
